Source: patent US20180153830A1, “SELECTIVE INHIBITORS OF UNDIFFERENTIATED CELLS” (Yissum Research Development Company of the Hebrew …, priority 2012, published 2018)
Where a name gives a salt, the structure may show the parent alone. Peptide text beside a SMILES is read from it. * marks the point of attachment. Cbz = O=C(OCc1ccccc1)*; CH2F = FC*

Experiments:
[1] = hPSC viability after SCD1 inhibitors with or without oleic acid; type: cell-based, human; conditions: human, human pluripotent stem cells (hPSCs), 75 nM, read-out: decrease in viability of hPSCs
Description: (§1) In order to determine whether hPSC viability indeed depends on functional SCD1 activity, hPSCs were exposed to 75 nM of the specific SCD1 inhibitors A939572 and CAY-10566 for 48 hours. Some samples were supplemented with 100 μM oleic acid in order to evaluate the effect of exogenous supplementation of oleic acid (a product of SCD1 activity) on cell death.

hPSCs = assay: as above; type: cell-based, human; conditions: 75 nM inhibitor, 100 μM oleic acid, 48 hours
Description: as §1

[2] = system: human embryonic stem cells; assay: Pancaspase inhibitor effect on PluriSIn #1-induced cell death; type: cell-based; conditions: 25 μM or 100 μM, 1 hour before 20 μM PluriSIn #1; 24 hours
Description: The effect of the pancaspase inhibitor Z-VAD-FMK on PluriSIn #1-induced cell death was also examined. Cells were treated with 25 μM or 100 μM of Z-VAD-FMK, and 1 hour later PluriSIn #1 (20 μM) was added to the medium. After 24 hours, the cultures were subjected to cell viability measurements, as described hereinabove.

[3] = system: human pluripotent stem cells (hPSCs); assay: Pilot cytotoxicity screen with 50 commercially available compounds; type: cell-based; conditions: within 24 hours
Description: (§2) The CellTiter-Glo® luminescent cell viability assay (Promega, Madison, Wis.) was implemented as a high-throughput screening (HTS) assay for a chemical library screen in a 384-well format. After the DMSO tolerance of the assay was assessed, and the optimal cell numbers were determined for each cell type, a pilot screen was performed with the following 50 commercially available compounds:
(§3) 3-acetamidophenol, 4-acetamidophenol, 6-methylcoumarin, acetaminophen, acetazolamide, actidione, amantadine hydrochloride, aminosalicylic acid, amodiaquine, amsacrine hydrochloride, aztreonam, caffeine, carboplatin, cefamandole sodium, cholic acid, ciprofloxacin, clozapine, coumarin, crotaline, diflunisal, dopamine, doxycycline, erythromycin, estradiol, famotidine, fenofibrate, fludrocortisone acetate, gentamicin, imipramine, isoniazid, isoproterenol, kanamycin, ketoconazole, L-thyroxine, mefenamic acid, nadolol, naibuphine hydrochloride hydrate, nizatidine, norepinephrine, phenobarbital, quinine hydrochloride, salicylate, sodium 2-mercapto-ethanesulfonate, sulfasalazine, sulindac, tetracycline, tetraethylthiarum disulfide, timolol maleate, valproic acid sodium, and WY-14643.
(§4) A pilot screen was then performed with 50 commercially-available compounds (as described in the Materials and Methods section hereinabove), which were randomly selected from a bank of known cytotoxic compounds. […]

[4] = system: human embryonic stem cells; assay: Oleic acid rescue assay; type: cell-based; conditions: 20 μM PluriSIn (2 μM amsacrine); up to 100 μM BSA-OA
Description: Human embryonic stem cells were cultured without feeder cells in CELLSTAR® 24-well tissue culture plates (Greiner Bio-One) pre-coated with Matrigel™, using mTeSR1 defined medium. […] After 24 hours, the cells were subjected to microscopy imaging and to cell viability measurements.
In order to further investigate the effect of SCD activity on hPSC viability, the ability of exogenous supplementation of oleic acid (the direct product of SCD1) to rescue cells from PluriSIn-induced apoptosis was further studied, using procedures described in the Materials and Methods section. Cells were exposed to PluriSn #1 in the presence of increasing concentrations of BSA-conjugated oleic acid (BSA-OA).
For comparison, cells were exposed to 20 μM of PluriSIn #1, #2, #3 and #6 in the presence of 100 μM BSA-OA.

[5] = Pilot cytotoxicity screen with 50 commercially available compounds; type: cell-based, human; conditions: human; after 24 hours, at a concentration of 1-3 μM; read-out: decrease in cell viability
Description: as §2, §3, §4

[6] = system: embryonic stem cells and differentiated cells (human fibroblasts); assay: Cytotoxicity of ER stress inducer and protein synthesis inhibitor with or without oleic acid

Cc1nnc(-c2ccc(N3CCC(Oc4cc(F)ccc4Cl)CC3)nn2)o1 [CAY-10566, 3-[4-(2-chloro-5-fluorophenoxy)-1-piperidinyl]-6-(5-methyl-1,3,4-oxadiazol-2-yl)-pyridazine]
cytotoxicity at 48 h, 75 nM [1]: > 80%
rescue from SCD1 inhibitor-induced cell death by oleic acid (hPSCs): completely rescued

COC(=O)C[C@H](NC(=O)[C@H](C)NC(=O)[C@@H](NC(=O)OCc1ccccc1)C(C)C)C(=O)CF [Z-VAD-FMK] (Cbz-Val-Ala-Asp(OMe)-CH2F)
suppression of PluriSIn #1-induced cell death [2]: significant suppressed PluriSIn #1-induced cell death

COc1cc(NS(C)(=O)=O)ccc1Nc1c2ccccc2nc2ccccc12 [amsacrine hydrochloride, reference compound]
cell killing [3]: killed almost all cells
protection by BSA-conjugated oleic acid (BSA-OA) against cell death induced by the compound [4]: did not protect

C[C@@H]1C[C@@H]([C@H](O)CC2CC(=O)NC(=O)C2)C(=O)[C@@H](C)C1 [cycloheximide]
cytotoxicity at 24 h [5]: ~50%
protection by oleic acid against the compound's cytotoxicity ([6]; 100 μM oleic acid): does not protect
cytotoxicity towards embryonic stem cells and differentiated cells ([6]; 1 mM dithiothreitol or 10 μM cycloheximide, 48 hours): cytotoxic towards both embryonic stem cells and differentiated cells
